Reference: publication PMC10460728 (Journal of Pharmacokinetics and Pharmacodynamics, 2023)
Values joined by “and” are separate entries in the source; they are usually repeats but may differ in a detail not shown here. Equal entries are not always repeated. Where two headings read alike, the source gives them in different places.

Key:
[1] = test system: P-gp; conditions: cited from earlier work
[2] = test system: CYP3A4
[3] = test system: P-gp; assay: P-gp mRNA induction in cultured human hepatocytes; assay type: cell-based
[4] = biological target: P-gp (human MDR1) (Homo sapiens, UniProt P08183); assay: In vitro P-gp inhibition: 3H-digoxin permeation across control and MDR1-expressing LLC-PK1 cell monolayers
Description: MDR1-expressing cells (porcine kidney epithelial LLC-PK1 cells transfected with human MDR1 cDNA) was used. The MDR1-expressing cells were seeded at a density of 4 × 10^4 cells/insert in plates and were incubated in a CO2 incubator (37 °C, CO2: 5%) for 7 to 9 days to prepare cell monolayers. […] After incubation for 4 h at 37 °C, a 70-μL aliquot of the incubation solutions was collected as the analytical sample from the opposite compartment of that spiked with test solutions (receiver compartment). The collected samples were immediately combined with 10 mL of scintillator, and the radioactivity was counted using the LSC. Permeability coefficient (Papp) of ^3H-digoxin was calculated using the following equation: Pappcm/sec=[dQ/dt]/A/C0 where dQ/dt is the transport rate (dpm/sec); A is the membrane area (cm^2); C0 is the initial concentration (dpm/mL). The ratio of permeability coefficient (Papp ratio) was calculated from the basal to apical Papp and apical to basal Papp according to the following equation: Pappratio=BasaltoapicalPapp/ApicaltobasalPapp
Furthermore, the ratios of the Papp ratios in MDR1-expressing cells to the Papp ratios in control cells were calculated as corrected Papp ratio according to the following equation: CorrectedPappratio=PappratiooftheMDR1expressingcells/Pappratioofthecontrolcells
The % of control was calculated from the corrected Papp ratio according to the following equation: \% \,of\,control=CorrectedPappratio\,in\,the\,absence\,or\,presence\,of\,inhibitors/CorrectedPappratio\,in\,the\,absence\,of\,inhibitors×100

[5] = PBPK models of enzalutamide and M2 (Simcyp)
From the text: Many of the physicochemical properties and plasma protein binding data were obtained internally and also referenced from FDA documents, which are available from the FDA website. […] Accordingly, the solution formulation option in the Simcyp model was used.
The PBPK models of CYP2C8 inhibitor (gemfibrozil), CYP3A4 substrate (midazolam), and P-gp substrate (digoxin) were used from the Simcyp software library with models that were verified for their intended purpose.

[6] = mean
[7] = plasma; ref FDA CP review; cited from earlier work
[8] = test system: CYP2C8; assay: CYP2C8 mRNA induction in cultured human hepatocytes
[9] = test system: CYP1A2; assay: CYP1A2 mRNA induction in cultured human hepatocytes
[10] = test system: CYP2C9; assay: CYP2C9 mRNA induction in cultured human hepatocytes
[11] = test system: CYP2C19; assay: CYP2C19 mRNA induction in cultured human hepatocytes
[12] = test system: CYP2B6; assay: CYP2B6 mRNA induction in cultured human hepatocytes
[13] = biological target: T1, OAT3 (Homo sapiens, UniProt Q8TCC7); assay: In vitro OAT3 inhibition (internal data); assay type: cell-based
T1 sequence (Q8TCC7 1-542): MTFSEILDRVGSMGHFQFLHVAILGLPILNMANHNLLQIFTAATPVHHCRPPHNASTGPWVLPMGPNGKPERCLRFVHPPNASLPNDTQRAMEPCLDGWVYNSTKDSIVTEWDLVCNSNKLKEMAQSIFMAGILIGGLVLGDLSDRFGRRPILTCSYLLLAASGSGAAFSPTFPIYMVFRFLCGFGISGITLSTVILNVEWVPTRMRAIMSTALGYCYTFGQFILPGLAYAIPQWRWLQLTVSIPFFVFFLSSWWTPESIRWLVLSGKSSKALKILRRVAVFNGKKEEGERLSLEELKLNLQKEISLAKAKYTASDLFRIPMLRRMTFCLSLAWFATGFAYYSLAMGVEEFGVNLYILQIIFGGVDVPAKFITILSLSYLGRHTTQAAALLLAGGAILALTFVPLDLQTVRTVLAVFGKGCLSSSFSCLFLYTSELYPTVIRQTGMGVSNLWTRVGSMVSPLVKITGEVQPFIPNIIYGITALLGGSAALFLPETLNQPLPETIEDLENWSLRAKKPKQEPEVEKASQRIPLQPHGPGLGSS

[14] = multiple 160 mg doses of enzalutamide, mean (SD)
[15] = multiple oral 160 mg enzalutamide
[16] = 100 µmol/L (enzalutamide, M2: two lots of hepatocyte)
[17] = 3H-digoxin 1 µmol/L, additive 0.1 µmol/L
[18] = 3H-digoxin 1 µmol/L, additive 0.3 µmol/L
[19] = 3H-digoxin 1 µmol/L, additive 1 µmol/L
[20] = 3H-digoxin 1 µmol/L, additive 3 µmol/L
[21] = 3H-digoxin 1 µmol/L, additive 10 µmol/L
[22] = 3H-digoxin 1 µmol/L, additive 25 µmol/L
[23] = once-daily oral 160 mg enzalutamide for 49 days
[24] = single oral 160 mg enzalutamide
[25] = 3H-digoxin 1 µmol/L, additive 30 µmol/L
[26] = 3H-digoxin 1 µmol/L, additive 80 µmol/L

Sequence of P-gp (human MDR1) (P08183 whole entry): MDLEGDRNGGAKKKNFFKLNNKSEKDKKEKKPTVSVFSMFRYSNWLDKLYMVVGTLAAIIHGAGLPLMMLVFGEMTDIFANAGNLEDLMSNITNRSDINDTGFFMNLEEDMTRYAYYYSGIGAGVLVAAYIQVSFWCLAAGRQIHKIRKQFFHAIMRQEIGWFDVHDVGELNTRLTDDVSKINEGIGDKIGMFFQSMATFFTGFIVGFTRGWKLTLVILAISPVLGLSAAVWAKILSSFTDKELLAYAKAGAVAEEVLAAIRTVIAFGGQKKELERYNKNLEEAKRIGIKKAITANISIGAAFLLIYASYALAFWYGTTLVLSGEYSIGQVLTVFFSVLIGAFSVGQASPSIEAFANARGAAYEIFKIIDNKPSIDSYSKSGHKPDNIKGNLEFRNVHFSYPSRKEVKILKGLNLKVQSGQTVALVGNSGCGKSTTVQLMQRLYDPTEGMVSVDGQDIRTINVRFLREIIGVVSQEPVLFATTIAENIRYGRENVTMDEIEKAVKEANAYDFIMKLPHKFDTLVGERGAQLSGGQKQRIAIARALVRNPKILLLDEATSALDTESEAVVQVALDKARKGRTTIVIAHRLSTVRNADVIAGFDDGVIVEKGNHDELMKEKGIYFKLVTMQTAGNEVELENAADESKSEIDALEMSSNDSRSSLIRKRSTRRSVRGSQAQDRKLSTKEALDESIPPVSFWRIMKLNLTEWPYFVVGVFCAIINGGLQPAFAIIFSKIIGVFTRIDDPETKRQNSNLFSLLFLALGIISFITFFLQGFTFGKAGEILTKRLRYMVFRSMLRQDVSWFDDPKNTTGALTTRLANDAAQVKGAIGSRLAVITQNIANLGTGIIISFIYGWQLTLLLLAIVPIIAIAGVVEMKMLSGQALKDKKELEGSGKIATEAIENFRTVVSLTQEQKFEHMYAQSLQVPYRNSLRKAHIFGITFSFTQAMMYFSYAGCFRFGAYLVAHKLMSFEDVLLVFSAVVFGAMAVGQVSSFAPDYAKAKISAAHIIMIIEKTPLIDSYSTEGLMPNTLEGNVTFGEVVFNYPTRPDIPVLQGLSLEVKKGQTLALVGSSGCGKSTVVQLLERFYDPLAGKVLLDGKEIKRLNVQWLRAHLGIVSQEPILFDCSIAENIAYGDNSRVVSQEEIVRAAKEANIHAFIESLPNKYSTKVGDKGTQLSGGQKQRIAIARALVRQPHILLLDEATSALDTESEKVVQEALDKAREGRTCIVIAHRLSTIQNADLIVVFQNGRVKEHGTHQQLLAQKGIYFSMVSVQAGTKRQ

C[C@H]1O[C@@H](O[C@H]2[C@@H](O)C[C@H](O[C@H]3[C@@H](O)C[C@H](O[C@H]4CC[C@@]5(C)[C@H](CC[C@@H]6[C@@H]5C[C@@H](O)[C@]5(C)[C@@H](C7=CC(=O)OC7)CC[C@]65O)C4)O[C@@H]3C)O[C@@H]2C)C[C@H](O)[C@@H]1O [Digoxin, digoxin]
AUC ratio, observed ([1]; geometric mean ratio (90% CI)): 1.29 (1.21–1.38)
Cmax ratio, observed ([1]; geometric mean ratio (90% CI)): 1.17 (1.06–1.29)
AUC without enzalutamide, observed ([1]; mean (SD)): 22.1 (4.10) ng·h/mL
Cmax without enzalutamide, observed ([1]; mean (SD)): 1.45 (0.314) ng/mL
AUC with enzalutamide, observed [1, 14]: 28.7 (5.79) ng·h/mL
Cmax with enzalutamide, observed [1, 14]: 1.69 (0.384) ng/mL
Increase in digoxin AUC by enzalutamide [1, 15]: 29%
Increase in digoxin Cmax by enzalutamide [1, 15]: 17%

CC1(C)C(=O)N(c2ccc(C#N)c(C(F)(F)F)c2)C(=S)N1c1ccc(C(N)=O)c(F)c1 [M2, N-desmethyl enzalutamide]
IC50 ([4]; read-out: IC50 (P-gp-mediated 3H-digoxin transport), 3H-digoxin 1 µmol/L, MDR1-expressing LLC-PK1 cells): 1090 nM
Ki ([4]; read-out: Ki on P-gp, IC50 regarded as Ki, PBPK model input): 1090 nM
CLint,HLM ([5]; PBPK model parameter, see text): 1.399 μL/min/mg protein
CYP3A4 contribution to M2 elimination ([5]; set to recover M2 exposure after multiple doses of enzalutamide): 9%
AUCtau, observed [6, 23]: 278.3 µg·h/mL
Cmax, observed [6, 23]: 12680 ng/mL
Cmin, observed [6, 23]: 10570 ng/mL
MPR (MWC), observed [6, 23]: 0.913
AUCinf, observed [6, 24]: 395 µg·h/mL
Cmax, observed [6, 24]: 887 ng/mL
t1/2, observed [6, 24]: 179 h
fu [7]: 0.0467
Ki [13]: 11500 nM

CCC1(c2ccccc2)C(=O)NC(=O)NC1=O [Phenobarbital, phenobarbital, reference compound]
Fold increase P-gp mRNA ([3]; 750 µmol/L): 2.61 ± 0.59 fold
Fold increase CYP2B6 mRNA ([12]; 750 µmol/L): 6.90 ± 3.66 fold

CC1(C)C(=O)N(c2ccc(C#N)c(C(F)(F)F)c2)C(=S)N1c1ccc(C(=O)O)c(F)c1 [M1]
Fold increase CYP3A4 mRNA ([2]; 1 µmol/L): 0.832 ± 0.417 fold
Fold increase CYP3A4 mRNA ([2]; 10 µmol/L): 1.17 ± 0.46 fold
Fold increase CYP3A4 mRNA ([2]; hepatocytes): 1.83 ± 0.98 fold
Fold increase P-gp mRNA ([3]; 1 µmol/L): 0.885 ± 0.553 fold
Fold increase P-gp mRNA ([3]; 10 µmol/L): 1.46 ± 0.79 fold
Fold increase P-gp mRNA [3, 16]: 1.32 ± 0.25 fold
Control cells Papp ratio [4, 18]: 1.3
Corrected Papp ratio [4, 18]: 13.2
MDR1-expressing cells Papp ratio [4, 18]: 17.1
Control cells Papp ratio [4, 19]: 1.2
Corrected Papp ratio [4, 19]: 17.4
MDR1-expressing cells Papp ratio [4, 19]: 20.9
Control cells Papp ratio [4, 20]: 1.0
Corrected Papp ratio [4, 20]: 19.2
MDR1-expressing cells Papp ratio [4, 20]: 19.2
Control cells Papp ratio [4, 21]: 1.0
Corrected Papp ratio [4, 21]: 21.7
MDR1-expressing cells Papp ratio [4, 21]: 21.7
Control cells Papp ratio [4, 25]: 1.0
Corrected Papp ratio [4, 25]: 18.3
MDR1-expressing cells Papp ratio [4, 25]: 18.3
Control cells Papp ratio [4, 26]: 1.0
Corrected Papp ratio [4, 26]: 21.3
MDR1-expressing cells Papp ratio [4, 26]: 21.3
Inhibition of P-gp-mediated 3H-digoxin transport ([4]; result in words): did not inhibit
Fold increase CYP2C8 mRNA ([8]; 1 µmol/L): 1.11 ± 0.53 fold
Fold increase CYP2C8 mRNA ([8]; 10 µmol/L): 1.44 ± 0.50 fold
Fold increase CYP2C8 mRNA [8, 16]: 2.35 ± 1.66 fold
Fold increase CYP1A2 mRNA ([9]; 1 µmol/L): 0.697 ± 0.260 fold
Fold increase CYP1A2 mRNA ([9]; 10 µmol/L): 0.883 ± 0.303 fold
Fold increase CYP1A2 mRNA [9, 16]: 1.01 ± 0.59 fold
Fold increase CYP2C9 mRNA ([10]; 1 µmol/L): 0.853 ± 0.361 fold
Fold increase CYP2C9 mRNA ([10]; 10 µmol/L): 0.888 ± 0.172 fold
Fold increase CYP2C9 mRNA [10, 16]: 1.52 ± 0.63 fold
Fold increase CYP2C19 mRNA ([11]; 1 µmol/L): 0.855 ± 0.246 fold
Fold increase CYP2C19 mRNA ([11]; 10 µmol/L): 1.06 ± 0.10 fold
Fold increase CYP2C19 mRNA [11, 16]: 1.55 ± 0.80 fold
Fold increase CYP2B6 mRNA ([12]; 1 µmol/L): 0.724 ± 0.316 fold
Fold increase CYP2B6 mRNA ([12]; 10 µmol/L): 1.03 ± 0.43 fold
Fold increase CYP2B6 mRNA [12, 16]: 0.848 ± 0.337 fold
